Measured values taken from PubChem BioAssay AID276 (DTP/NCI, 2004).
Where “and” joins values, the source holds several entries; their conditions need not be identical. Equal values may be shown once. Toxic doses and inconclusive results are not listed.

Test system: B6C3F1 mice, Lewis lung carcinoma iv, survival T/C
Assay: NCI In Vivo Anticancer Drug Screen. Data for tumor model Lewis Lung Carcinoma (intravenous) in B6C3F1 mice
Conditions: endpoint: median survival time, schedule: Q01DX009 (ip), higher = longer survival
Procedure: The antitumor activity of compounds was measured in mice bearing transplantable tumors. Survival or tumor size were measured and the results are expressed as the measurement made in the treated group (T) divided by the measurement made in the vehicle treated control group (C). The tumor model used in this assay is Lewis Lung Carcinoma (intravenous) in B6C3F1 mice

[1] = dose: 3.0 mg/kg/injection, vehicle: saline
[2] = dose: 6.0 mg/kg/injection, vehicle: saline
[3] = dose: 3.12 mg/kg/injection, vehicle: saline
[4] = dose: 6.25 mg/kg/injection, vehicle: saline
[5] = dose: 12.0 mg/kg/injection, vehicle: saline
[6] = dose: 12.5 mg/kg/injection, vehicle: saline
[7] = dose: 25.0 mg/kg/injection, vehicle: water
[8] = dose: 50.0 mg/kg/injection, vehicle: water
[9] = dose: 12.5 mg/kg/injection, vehicle: Klucel (hydroxypropylcellulose) (HPC)
[10] = dose: 25.0 mg/kg/injection, vehicle: Klucel (hydroxypropylcellulose) (HPC)
[11] = dose: 50.0 mg/kg/injection, vehicle: Klucel (hydroxypropylcellulose) (HPC)
[12] = dose: 25.0 mg/kg/injection, vehicle: saline with Tween-80
[13] = dose: 50.0 mg/kg/injection, vehicle: saline with Tween-80
[14] = dose: 25.0 mg/kg/injection, vehicle: saline
[15] = dose: 50.0 mg/kg/injection, vehicle: saline
[16] = dose: 6.25 mg/kg/injection, vehicle: water
[17] = dose: 12.5 mg/kg/injection, vehicle: water
[18] = dose: 12.5 mg/kg/injection, vehicle: saline with Tween-80

Question: How did the T/C (dose: 0.75 mg/kg/injection, vehicle: saline) turn out when `[Cl][Pt+2][Cl].[NH-]C1CCC1.[NH2-]` was run?
Answer: 101 % of control

Question: What about the T/C [1] of the same compound?
Answer: 111 % of control

Question: What about the T/C [2] of the same compound?
Answer: 124 % of control

Question: With `NC(=O)c1csc(C2OC(CO)C(O)C2O)n1` (configuration not stated) as the compound, how does the T/C (dose: 0.78 mg/kg/injection, vehicle: saline) read?
Answer: 94 % of control

Question: What about the T/C (dose: 1.56 mg/kg/injection, vehicle: saline) of the same compound?
Answer: 109 % of control

Question: And the T/C [3]?
Answer: 108 % of control

Question: And the T/C [4]?
Answer: 119 % of control

Question: And the T/C [5]?
Answer: 155 % of control and 158 % of control

Question: And the T/C [6]?
Answer: 284 % of control

Question: What about the T/C [7] of the same compound?
Answer: 240 % of control and 348 % of control and 355 % of control

Question: What about the T/C [8] of the same compound?
Answer: 240 % of control and 348 % of control and 355 % of control

Question: What about the T/C (dose: 62.5 mg/kg/injection, vehicle: water) of the same compound?
Answer: 295 % of control

Question: What about the T/C (dose: 100.0 mg/kg/injection, vehicle: water) of the same compound?
Answer: 240 % of control and 348 % of control and 355 % of control

Question: What about the T/C (dose: 125.0 mg/kg/injection, vehicle: water) of the same compound?
Answer: 295 % of control

Question: And the T/C (dose: 200.0 mg/kg/injection, vehicle: water)?
Answer: 240 % of control and 348 % of control and 355 % of control

Question: What about the T/C (dose: 250.0 mg/kg/injection, vehicle: water) of the same compound?
Answer: 295 % of control

Question: What about the T/C (dose: 400.0 mg/kg/injection, vehicle: water) of the same compound?
Answer: 240 % of control and 348 % of control and 355 % of control

Question: What about the T/C (dose: 500.0 mg/kg/injection, vehicle: water) of the same compound?
Answer: 295 % of control

Question: What about the T/C (dose: 800.0 mg/kg/injection, vehicle: water) of the same compound?
Answer: 240 % of control

Question: And the T/C (dose: 1000.0 mg/kg/injection, vehicle: water)?
Answer: 295 % of control

Question: Which T/C (dose: 3.12 mg/kg/injection, vehicle: Klucel (hydroxypropylcellulose) (HPC)) does the source give for `NC(CSC(c1ccccc1)(c1ccccc1)c1ccccc1)C(=O)O` (configuration not stated) here?
Answer: 116 % of control

Question: And the T/C (dose: 6.25 mg/kg/injection, vehicle: Klucel (hydroxypropylcellulose) (HPC))?
Answer: 96 % of control

Question: What about the T/C [9] of the same compound?
Answer: 111 % of control

Question: What about the T/C [10] of the same compound?
Answer: 102 % of control

Question: What about the T/C [11] of the same compound?
Answer: 107 % of control

Question: `C=Cc1cnc([N+](=O)[O-])n1C` was tested. Which T/C [9] did it give?
Answer: 94 % of control

Question: What about the T/C [10] of the same compound?
Answer: 90 % of control

Question: And the T/C [11]?
Answer: 99 % of control

Question: And the T/C (dose: 100.0 mg/kg/injection, vehicle: Klucel (hydroxypropylcellulose) (HPC))?
Answer: 92 % of control

Question: What about the T/C (dose: 200.0 mg/kg/injection, vehicle: Klucel (hydroxypropylcellulose) (HPC)) of the same compound?
Answer: 92 % of control

Question: For `NC(=O)CCC(N)C(=O)O` (configuration not stated), which T/C (dose: 25.0 mg/kg/injection, vehicle: suspension in saline) is on record?
Answer: 109 % of control

Question: What about the T/C (dose: 50.0 mg/kg/injection, vehicle: suspension in saline) of the same compound?
Answer: 111 % of control

Question: What about the T/C (dose: 100.0 mg/kg/injection, vehicle: suspension in saline) of the same compound?
Answer: 107 % of control

Question: And the T/C (dose: 200.0 mg/kg/injection, vehicle: suspension in saline)?
Answer: 102 % of control

Question: And the T/C (dose: 400.0 mg/kg/injection, vehicle: suspension in saline)?
Answer: 94 % of control

Question: `O=C(O)CC(=O)O.[NH-]CC[NH-].[Pt+2]` was tested. Which T/C (dose: 1.56 mg/kg/injection, vehicle: dextrose) did it give?
Answer: 108 % of control

Question: What about the T/C (dose: 3.12 mg/kg/injection, vehicle: dextrose) of the same compound?
Answer: 107 % of control and 120 % of control

Question: What about the T/C (dose: 6.25 mg/kg/injection, vehicle: dextrose) of the same compound?
Answer: 105 % of control and 109 % of control

Question: What about the T/C (dose: 12.5 mg/kg/injection, vehicle: dextrose) of the same compound?
Answer: 102 % of control and 119 % of control

Question: Which results are given for `O=NN(CCCl)C(=O)NC1CCC(CC2CCC(NC(=O)N(CCCl)N=O)CC2)CC1` (configuration not stated)?
Answer: T/C [12]: 190 % of control; T/C [13]: 165 % of control

Question: How did the T/C [4] turn out when `O=N[O-].O=N[O-].O=N[O-].[Co+3].[NH-]CC[N-]CC[NH-]` was run?
Answer: 98 % of control

Question: And the T/C [6]?
Answer: 115 % of control

Question: And the T/C [14]?
Answer: 117 % of control

Question: What about the T/C [15] of the same compound?
Answer: 90 % of control

Question: With `COc1cccc2c1C(=O)c1c(O)c3c(c(O)c1C2=O)CC(O)(/C(C)=N/NC(=O)CCC(=O)N/N=C(\C)C1(O)Cc2c(O)c4c(c(O)c2C(OC2CC(N)C(O)C(C)O2)C1)C(=O)c1c(OC)cccc1C4=O)CC3OC1CC(N)C(O)C(C)O1` (configuration not stated) as the compound, how does the T/C (dose: 0.75 mg/kg/injection, vehicle: water) read?
Answer: 99 % of control and 100 % of control

Question: What about the T/C (dose: 1.5 mg/kg/injection, vehicle: water) of the same compound?
Answer: 103 % of control and 105 % of control

Question: What about the T/C (dose: 3.0 mg/kg/injection, vehicle: water) of the same compound?
Answer: 101 % of control

Question: And the T/C (dose: 6.0 mg/kg/injection, vehicle: water)?
Answer: 105 % of control and 260 % of control

Question: And the T/C (dose: 12.0 mg/kg/injection, vehicle: water)?
Answer: 101 % of control and 113 % of control

Question: And the T/C (dose: 24.0 mg/kg/injection, vehicle: water)?
Answer: 104 % of control

Question: Which results are given for `NC(=O)c1csc(C2O[C@@H](COP(=O)(O)OP(=O)(O)OC[C@H]3OC(n4cnc5c(N)ncnc54)[C@H](O)[C@@H]3O)[C@H](O)[C@@H]2O)n1` (some centres not stated)?
Answer: T/C (dose: 3.12 mg/kg/injection, vehicle: water): 101 % of control; T/C [16]: 98 % of control; T/C [17]: 104 % of control; T/C [7]: 120 % of control; T/C [8]: 209 % of control

Question: What does the source list for `COc1ccc(OC)c(Cc2cnc3nc(N)nc(N)c3c2C)c1`?
Answer: T/C [16]: 104 % of control; T/C [17]: 112 % of control; T/C [7]: 100 % of control; T/C [8]: 92 % of control

Question: What does the source list for `CC(C#N)(C#N)N=Nc1ccc(Cl)cc1Cl`?
Answer: T/C [18]: 98 % of control; T/C [12]: 104 % of control; T/C [13]: 109 % of control; T/C (dose: 100.0 mg/kg/injection, vehicle: saline with Tween-80): 110 % of control; T/C (dose: 200.0 mg/kg/injection, vehicle: saline with Tween-80): 106 % of control; T/C (dose: 400.0 mg/kg/injection, vehicle: saline with Tween-80): 104 % of control

Question: `C[n+]1c2cc(N)ccc2cc2ccc(N)cc21` was tested. Which T/C (dose: 1.5 mg/kg/injection, vehicle: saline) did it give?
Answer: 102 % of control

Question: What about the T/C [1] of the same compound?
Answer: 95 % of control

Question: And the T/C [2]?
Answer: 107 % of control

Question: And the T/C [5]?
Answer: 90 % of control

Question: For `CNC(=O)n1c(N)nc(-c2ccccc2)c1-c1ccccc1`, which T/C (dose: 6.25 mg/kg/injection, vehicle: saline with Tween-80) is on record?
Answer: 102 % of control

Question: And the T/C [18]?
Answer: 103 % of control

Question: And the T/C [12]?
Answer: 103 % of control

Question: And the T/C [13]?
Answer: 102 % of control

Question: How did the T/C (dose: 1.0 mg/kg/injection, vehicle: distilled water + Tween-80) turn out when `CC(=O)OC1C(O)C(C)OC(OC2C(OC(=O)C3CCC4C(C3)OC3(CC(OC(=O)/C=C/c5ccccc5)C(C)CO3)C43CO3)OC(C)C(O)C2OC(C)=O)C1O` (configuration not stated) was run?
Answer: 105 % of control

Question: And the T/C (dose: 2.0 mg/kg/injection, vehicle: distilled water + Tween-80)?
Answer: 99 % of control

Question: And the T/C (dose: 4.0 mg/kg/injection, vehicle: distilled water + Tween-80)?
Answer: 100 % of control

Question: What about the T/C (dose: 8.0 mg/kg/injection, vehicle: distilled water + Tween-80) of the same compound?
Answer: 102 % of control

Question: And the T/C (dose: 16.0 mg/kg/injection, vehicle: distilled water + Tween-80)?
Answer: 91 % of control

Question: Which results are given for `C=CCOCC1CO1` (configuration not stated)?
Answer: T/C [6]: 105 % of control; T/C [14]: 100 % of control; T/C [15]: 99 % of control; T/C (dose: 100.0 mg/kg/injection, vehicle: saline): 104 % of control; T/C (dose: 200.0 mg/kg/injection, vehicle: saline): 115 % of control

Question: Which results are given for `O=c1[nH]c2c(ccc3cnccc32)c2c1CCC2`?
Answer: T/C [3]: 109 % of control; T/C [4]: 102 % of control; T/C [6]: 105 % of control; T/C [14]: 109 % of control

Question: With `CCCCNC(C)C1(O)Cc2c(O)c3c(c(O)c2C(OC2CC(N)C(O)C(C)O2)C1)C(=O)c1c(OC)cccc1C3=O` (configuration not stated) as the compound, how does the T/C (dose: 10.0 mg/kg/injection, vehicle: water) read?
Answer: 108 % of control

Question: And the T/C (dose: 20.0 mg/kg/injection, vehicle: water)?
Answer: 101 % of control

Question: What about the T/C (dose: 40.0 mg/kg/injection, vehicle: water) of the same compound?
Answer: 107 % of control

Question: And the T/C (dose: 80.0 mg/kg/injection, vehicle: water)?
Answer: 113 % of control
